Experiment [1] deals with Nociceptin receptor (Cavia porcellus, UniProt P47748). Description: Antagonist activity at NOP receptor in Albino guinea pig ileum assessed as effect on electrically stimulated contractions.
For experiment [2], the target named is Nociceptin receptor (Rattus norvegicus, UniProt P35370). Description: Antagonist activity at NOP receptor in Sprague-Dawley rat vas deferens assessed as effect on electrically stimulated contractions.
For experiment [3], the target named is Nociceptin receptor (Mus musculus, UniProt P35377). Description: Antagonist activity at NOP receptor in Swiss mouse vas deferens […]. Background: GTPγS is a poorly hydrolysed GTP analogue; its binding reports G protein activation.

Where a SMILES comes first, the peptide text is derived from it. [ ]: non-standard residue; d: D form. ξ: configuration not given here. Phe(4-F) = N[C@@H](Cc1ccc(F)cc1)C(=O)O; Aib = CC(C)(N)C(=O)O; ξDap = NCC(N)C(=O)O

What is called Kd is a measure of binding affinity in units of concentration.

Chain of Nociceptin receptor (Mus musculus, UniProt P35377) (P35377 whole entry): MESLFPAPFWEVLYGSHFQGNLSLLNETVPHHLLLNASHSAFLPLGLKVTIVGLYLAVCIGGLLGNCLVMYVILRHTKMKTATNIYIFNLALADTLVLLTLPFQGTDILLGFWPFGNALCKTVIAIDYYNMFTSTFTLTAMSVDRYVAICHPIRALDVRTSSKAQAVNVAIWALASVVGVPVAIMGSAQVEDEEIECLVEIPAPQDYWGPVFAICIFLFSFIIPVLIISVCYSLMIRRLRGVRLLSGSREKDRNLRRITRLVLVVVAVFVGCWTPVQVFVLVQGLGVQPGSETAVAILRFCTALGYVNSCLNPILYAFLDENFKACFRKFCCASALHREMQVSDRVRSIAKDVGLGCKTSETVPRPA
Chain of Nociceptin receptor (Rattus norvegicus, UniProt P35370) (P35370 whole entry): as the sequence (P35377 whole entry) above, with F9Y, A335S counted along it
Chain of Nociceptin receptor (Cavia porcellus, UniProt P47748) (P47748 whole entry): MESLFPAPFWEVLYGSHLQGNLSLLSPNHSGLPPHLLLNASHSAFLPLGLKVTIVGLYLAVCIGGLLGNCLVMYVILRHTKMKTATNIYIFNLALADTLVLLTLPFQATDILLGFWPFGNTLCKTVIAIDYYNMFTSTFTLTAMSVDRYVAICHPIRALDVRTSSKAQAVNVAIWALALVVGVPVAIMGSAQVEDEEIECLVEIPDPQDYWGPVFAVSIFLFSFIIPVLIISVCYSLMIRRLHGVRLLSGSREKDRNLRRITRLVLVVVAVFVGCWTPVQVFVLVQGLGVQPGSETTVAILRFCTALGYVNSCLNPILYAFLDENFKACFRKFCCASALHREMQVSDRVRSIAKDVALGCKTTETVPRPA

Take `C[C@H](NC(=O)[C@H](CO)NC(=O)[C@H](CCCCN)NC(=O)[C@H](CCCN=C(N)N)NC(=O)C(C)(C)NC(=O)CNC(=O)[C@@H](NC(=O)[C@H](Cc1ccc(F)cc1)NC(=O)CNC(=O)C(CN)NC(=O)[C@@H](N)Cc1ccccc1)[C@@H](C)O)C(=O)N[C@@H](CCCN=C(N)N)C(=O)N[C@@H](CCCCN)C(=O)N[C@@H](CCCN=C(N)N)C(=O)N[C@@H](CCCCN)C(=O)N[C@@H](CC(N)=O)C(=O)N[C@@H](CCC(N)=O)C(N)=O` (stereo partly drawn) (H-F[ξDap]G[Phe(4-F)]TG[Aib]RKSARKRKNQ-NH2): the Kd in experiment [1] came to 0.316 nM; in experiment [2] it was 0.603 nM; in experiment [3], 0.794 nM.
